Earlier results on four compounds are cited in patent US20050245504A1, “Treatment of diseases with combinations of alpha 7 Nicotinic Acetylcholine Receptor agonists and other compounds” (priority 2002, published 2005).

Read-outs that look alike come from different tables or passages of the source.

The target of one data set is T1, 5HT3R (Homo sapiens, UniProt P46098).
T1 sequence (P46098 24-478): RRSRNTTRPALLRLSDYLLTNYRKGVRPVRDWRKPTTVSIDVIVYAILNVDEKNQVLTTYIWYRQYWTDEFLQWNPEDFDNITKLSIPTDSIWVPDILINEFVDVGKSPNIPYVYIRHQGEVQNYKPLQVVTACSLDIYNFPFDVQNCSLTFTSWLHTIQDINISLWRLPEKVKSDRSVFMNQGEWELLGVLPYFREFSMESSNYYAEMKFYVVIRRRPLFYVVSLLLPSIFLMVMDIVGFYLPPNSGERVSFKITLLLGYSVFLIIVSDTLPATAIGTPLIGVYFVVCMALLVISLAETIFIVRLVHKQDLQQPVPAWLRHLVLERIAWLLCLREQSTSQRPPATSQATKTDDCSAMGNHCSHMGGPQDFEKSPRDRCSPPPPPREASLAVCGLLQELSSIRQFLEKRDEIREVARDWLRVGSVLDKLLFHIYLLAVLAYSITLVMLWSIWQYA

Another data set deals with α7 nAChR (Homo sapiens, UniProt P36544).
Chain of α7 nAChR (P36544 23-502): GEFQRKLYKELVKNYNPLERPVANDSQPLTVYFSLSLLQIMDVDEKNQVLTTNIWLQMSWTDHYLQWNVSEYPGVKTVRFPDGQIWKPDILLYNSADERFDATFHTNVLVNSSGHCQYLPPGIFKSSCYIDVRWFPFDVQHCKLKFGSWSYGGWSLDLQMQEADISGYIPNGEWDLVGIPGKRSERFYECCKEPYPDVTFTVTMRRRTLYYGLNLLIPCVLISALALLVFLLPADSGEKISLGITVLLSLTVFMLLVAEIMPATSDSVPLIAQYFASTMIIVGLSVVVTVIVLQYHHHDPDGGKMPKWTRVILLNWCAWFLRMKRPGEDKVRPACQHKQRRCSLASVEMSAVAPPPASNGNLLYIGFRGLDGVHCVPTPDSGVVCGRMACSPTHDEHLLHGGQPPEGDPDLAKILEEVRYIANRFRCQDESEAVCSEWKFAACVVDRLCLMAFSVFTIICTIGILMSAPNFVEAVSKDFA

With `Cc1cc([C@@H]2CCCN2C)on1` [ABT-418], for the setting “clinical trials of Alzheimer's disease and attention-deficit disorders”, the cognition and attention result is “improves cognition and attention”.
On to `COc1ccc(/C=C2\CCCN=C2c2cccnc2)c(OC)c1` [GTS-21], for which the “activity at the 5HT3R” value on 5HT3R was “little activity”.
As for `Cc1nccn1CC1CCc2c(c3ccccc3n2C)C1=O` (stereo not shown) [Ondansetron], the “activity at the α7 nAChR” value at α7 nAChR was “little activity”.
Consider `CN1CCCC1c1cccnc1` (stereo not shown) [nicotine], for which the cognition and attention result (human, in vivo) is “increases cognition and attention”.
